Assay results published in ChEMBL document CHEMBL4261498, “Synthesis, characterization, and radioprotective activity of α,β-unsaturated aryl sulfone analogs and their Tempol conjugates” (Medchemcomm, 2017).
The source made the active and inactive calls. The rule behind the calls is not given here.

What was measured:
HUVEC [1] = experiment: Radioprotective activity against 5 Gy gamma radiation-mediated cell damage in HUVEC assessed as late apoptotic cells at 1 uM preincubated for 2 hrs followed by 5 Gy gamma irradiation and measured after 24 hrs by annexin-V-FITC/propidium iodide staining-based flow cytometric method (reference value: 9.5%); format: functional, Homo sapiens
HUVEC [2] = experiment: Radioprotective activity against 5 Gy gamma radiation-mediated cell damage in HUVEC assessed as late apoptotic cells at 0.1 uM preincubated for 2 hrs followed by 5 Gy gamma irradiation and measured after 24 hrs by annexin-V-FITC/propidium iodide staining-based flow cytometric method (reference value: 9.5%); format: functional, Homo sapiens
HUVEC [3] = experiment: Radioprotective activity against 5 Gy gamma radiation-mediated cell damage in HUVEC assessed as necrotic cells at 0.1 uM preincubated for 2 hrs followed by 5 Gy gamma irradiation and measured after 24 hrs by annexin-V-FITC/propidium iodide staining-based flow cytometric method (reference value: 3.5%); format: functional, Homo sapiens
HUVEC [4] = experiment: Radioprotective activity against 5 Gy gamma radiation-mediated cell damage in HUVEC assessed as necrotic cells at 1 uM preincubated for 2 hrs followed by 5 Gy gamma irradiation and measured after 24 hrs by annexin-V-FITC/propidium iodide staining-based flow cytometric method (reference value: 3.5%); format: functional, Homo sapiens
HUVEC [5] = experiment: Radioprotective activity against 5 Gy gamma radiation-mediated cell damage in HUVEC assessed as reduction of total p53 levels at 0.1 to 10 uM by Western blot method; format: functional, cell-based; settings: Homo sapiens
HUVEC [6] = experiment: Cytotoxicity against HUVEC after 24 hrs by MTT assay; format: cell-based; settings: human
HUVEC [7] = experiment: Radioprotective activity against 5 Gy gamma radiation-mediated cell damage in HUVEC assessed as viable cells at 1 uM preincubated for 2 hrs followed by 5 Gy gamma irradiation and measured after 24 hrs by annexin-V-FITC/propidium iodide staining-based flow cytometric method (reference value: 65.8%); format: functional; settings: Homo sapiens, light or radiation study, read-out: Activity
HUVEC [8] = experiment: Radioprotective activity against 5 Gy gamma radiation-mediated cell damage in HUVEC assessed as reduction of phopsho-p53 levels at 0.1 to 10 uM by Western blot method; format: functional, cell-based; settings: Homo sapiens
HUVEC [9] = experiment: Radioprotective activity against 5 Gy gamma radiation-mediated cell damage in HUVEC assessed as viable cells at 0.1 uM preincubated for 2 hrs followed by 5 Gy gamma irradiation and measured after 24 hrs by annexin-V-FITC/propidium iodide staining-based flow cytometric method (reference value: 65.8%); format: functional; settings: Homo sapiens, light or radiation study, read-out: Activity
HUVEC [10] = experiment: Radioprotective activity against 5 Gy gamma radiation-mediated cell damage in HUVEC assessed as increase in Bcl-2 levels at 0.1 to 10 uM by Western blot method; format: functional, cell-based; settings: Homo sapiens
HUVEC [11] = experiment: Radioprotective activity against 5 Gy gamma radiation-mediated cell damage in HUVEC assessed as increase in cell survival at 0.1 to 10 uM preincubated for 2 hrs followed by 5 Gy gamma irradiation and measured after 48 hrs by MTT assay; format: functional, cell-based; settings: Homo sapiens
HUVEC [12] = experiment: Radioprotective activity against 5 Gy gamma radiation-mediated cell damage in HUVEC assessed as decrease in Bax levels at 0.1 to 10 uM by Western blot method; format: functional, cell-based; settings: Homo sapiens
HUVEC [13] = experiment: Radioprotective activity against 5 Gy gamma radiation-mediated cell damage in HUVEC assessed as late apoptotic cells at 10 uM preincubated for 2 hrs followed by 5 Gy gamma irradiation and measured after 24 hrs by annexin-V-FITC/propidium iodide staining-based flow cytometric method (reference value: 9.5%); format: functional, Homo sapiens
HUVEC [14] = experiment: Radioprotective activity against 5 Gy gamma radiation-mediated cell damage in HUVEC assessed as decrease in caspase-3 activation at 0.1 to 10 uM by Western blot method; format: functional, cell-based; settings: Homo sapiens
HUVEC [15] = experiment: Radioprotective activity against 5 Gy gamma radiation-mediated cell damage in HUVEC assessed as early apoptotic cells at 10 uM preincubated for 2 hrs followed by 5 Gy gamma irradiation and measured after 24 hrs by annexin-V-FITC/propidium iodide staining-based flow cytometric method (reference value: 21.2%); format: functional, Homo sapiens
HUVEC [16] = experiment: Radioprotective activity against 5 Gy gamma radiation-mediated cell damage in HUVEC assessed as necrotic cells at 10 uM preincubated for 2 hrs followed by 5 Gy gamma irradiation and measured after 24 hrs by annexin-V-FITC/propidium iodide staining-based flow cytometric method (reference value: 3.5%); format: functional, Homo sapiens
HUVEC [17] = experiment: Radioprotective activity against 5 Gy gamma radiation-mediated cell damage in HUVEC assessed as early apoptotic cells at 0.1 uM preincubated for 2 hrs followed by 5 Gy gamma irradiation and measured after 24 hrs by annexin-V-FITC/propidium iodide staining-based flow cytometric method (reference value: 21.2%); format: functional, Homo sapiens
HUVEC [18] = experiment: Radioprotective activity against 5 Gy gamma radiation-mediated cell damage in HUVEC assessed as viable cells at 10 uM preincubated for 2 hrs followed by 5 Gy gamma irradiation and measured after 24 hrs by annexin-V-FITC/propidium iodide staining-based flow cytometric method (reference value: 65.8%); format: functional; settings: Homo sapiens, light or radiation study, read-out: Activity
HUVEC [19] = experiment: Radioprotective activity against 5 Gy gamma radiation-mediated cell damage in HUVEC assessed as early apoptotic cells at 1 uM preincubated for 2 hrs followed by 5 Gy gamma irradiation and measured after 24 hrs by annexin-V-FITC/propidium iodide staining-based flow cytometric method (reference value: 21.2%); format: functional, Homo sapiens
HUVEC [20] = experiment: Cytotoxicity against HUVEC at <10 uM after 24 hrs by MTT assay; format: cell-based; settings: human
HUVEC [21] = experiment: Radioprotective activity against 5 Gy gamma radiation-mediated cell damage in HUVEC assessed as late apoptotic cells at 0.01 uM preincubated for 2 hrs followed by 5 Gy gamma irradiation and measured after 24 hrs by annexin-V-FITC/propidium iodide staining-based flow cytometric method (reference value: 9.5%); format: functional, Homo sapiens
HUVEC [22] = experiment: Radioprotective activity against 5 Gy gamma radiation-mediated cell damage in HUVEC assessed as increase in cell survival at 0.01 to 10 uM preincubated for 2 hrs followed by 5 Gy gamma irradiation and measured after 48 hrs by MTT assay; format: functional, cell-based; settings: Homo sapiens
HUVEC [23] = experiment: Radioprotective activity against 5 Gy gamma radiation-mediated cell damage in HUVEC assessed as necrotic cells at 0.01 uM preincubated for 2 hrs followed by 5 Gy gamma irradiation and measured after 24 hrs by annexin-V-FITC/propidium iodide staining-based flow cytometric method (reference value: 3.5%); format: functional, Homo sapiens
HUVEC [24] = experiment: Radioprotective activity against 5 Gy gamma radiation-mediated cell damage in HUVEC assessed as viable cells at 0.01 uM preincubated for 2 hrs followed by 5 Gy gamma irradiation and measured after 24 hrs by annexin-V-FITC/propidium iodide staining-based flow cytometric method (reference value: 65.8%); format: functional; settings: Homo sapiens, light or radiation study, read-out: Activity
HUVEC [25] = experiment: Radioprotective activity against 5 Gy gamma radiation-mediated cell damage in HUVEC assessed as early apoptotic cells at 0.01 uM preincubated for 2 hrs followed by 5 Gy gamma irradiation and measured after 24 hrs by annexin-V-FITC/propidium iodide staining-based flow cytometric method (reference value: 21.2%); format: functional, Homo sapiens
HUVEC [26] = experiment: Radioprotective activity against 5 Gy gamma radiation-mediated cell damage in HUVEC assessed as reduction of phopsho-p53 levels at 0.01 to 1 uM by Western blot method; format: functional, cell-based; settings: Homo sapiens
HUVEC [27] = experiment: Radioprotective activity against 5 Gy gamma radiation-mediated cell damage in HUVEC assessed as decrease in Bax levels at 0.01 to 1 uM by Western blot method; format: functional, cell-based; settings: Homo sapiens
HUVEC [28] = experiment: Radioprotective activity against 5 Gy gamma radiation-mediated cell damage in HUVEC assessed as decrease in caspase-3 activation at 0.01 to 1 uM by Western blot method; format: functional, cell-based; settings: Homo sapiens
HUVEC [29] = experiment: Radioprotective activity against 5 Gy gamma radiation-mediated cell damage in HUVEC assessed as increase in cell survival at 0.01 to 1 uM after 48 hrs by MTT assay; format: functional, cell-based; settings: Homo sapiens
HUVEC [30] = experiment: Radioprotective activity against 5 Gy gamma radiation-mediated cell damage in HUVEC assessed as reduction of total p53 levels at 0.01 to 1 uM by Western blot method; format: functional, cell-based; settings: Homo sapiens
HUVEC [31] = experiment: Radioprotective activity against 5 Gy gamma radiation-mediated cell damage in HUVEC assessed as increase in Bcl-2 levels at 0.01 to 1 uM by Western blot method; format: functional, cell-based; settings: Homo sapiens
HUVEC [32] = experiment: Radioprotective activity against 5 Gy gamma radiation-mediated cell damage in HUVEC assessed as increase in cell survival at 0.1 to 10 uM after 48 hrs by MTT assay; format: functional, cell-based; settings: Homo sapiens

## O=C(O)c1ccc(/C=C/S(=O)(=O)Cc2ccc(F)cc2)cc1
HUVEC [1]
  Activity: 2.3%
HUVEC [2]
  Activity: 0.8%
HUVEC [3]
  Activity: 1.5%
HUVEC [4]
  Activity: 1.6%
HUVEC [5]
  Activity: Active
HUVEC [6]
  Activity: Toxic
HUVEC [7]
  viability at 1 µM: 85.6%
HUVEC [8]
  Activity: Active
HUVEC [9]
  viability at 0.1 µM: 90.4%
HUVEC [10]
  Activity: Active
HUVEC [11]
  Activity: inactive
HUVEC [12]
  Activity: Active
HUVEC [13]
  Activity: 1%
HUVEC [14]
  Activity: Active
HUVEC [15]
  Activity: 4.7%
HUVEC [16]
  Activity: 1%
HUVEC [17]
  Activity: 7.3%
HUVEC [18]
  viability at 10 µM: 93.4%
HUVEC [19]
  Activity: 10.5%

## Cc1ccc(/C=C/S(=O)(=O)Cc2ccc(Cl)cc2)cc1
HUVEC [6]
  Activity: Toxic

## O=S(=O)(/C=C/c1ccccc1)Cc1ccc(Cl)cc1
HUVEC [6]
  Activity: Toxic

## CC1(C)CC(OC(=O)c2ccc(/C=C/S(=O)(=O)Cc3ccc(F)cc3)cc2)CC(C)(C)N1[O]
HUVEC [20]
  Activity: Non-Toxic
HUVEC [1]
  Activity: 1.4%
HUVEC [2]
  Activity: 2.7%
HUVEC [3]
  Activity: 1.4%
HUVEC [4]
  Activity: 1%
HUVEC [21]
  Activity: 4%
HUVEC [7]
  viability at 1 µM: 90.8%
HUVEC [9]
  viability at 0.1 µM: 88.8%
HUVEC [22]
  Activity: Active
HUVEC [23]
  Activity: 1.9%
HUVEC [24]
  viability at 0.01 µM: 81%
HUVEC [25]
  Activity: 13%
HUVEC [17]
  Activity: 7.1%
HUVEC [19]
  Activity: 6.8%

## CC(C)(C)c1ccc(CS(=O)(=O)/C=C/c2ccc(C(=O)O)cc2)cc1
HUVEC [6]
  Activity: Toxic

## COc1ccc(CS(=O)(=O)/C=C/c2ccc(C(=O)O)cc2)cc1
HUVEC [6]
  Activity: Toxic

## CC1(C)CC(OC(=O)c2ccc(/C=C/S(=O)(=O)Cc3ccc(OC(F)(F)F)cc3)cc2)CC(C)(C)N1[O]
HUVEC [20]
  Activity: Non-Toxic
HUVEC [1]
  Activity: 1.1%
HUVEC [2]
  Activity: 2%
HUVEC [3]
  Activity: 0.6%
HUVEC [4]
  Activity: 1.7%
HUVEC [26]
  Activity: Active
HUVEC [27]
  Activity: Active
HUVEC [21]
  Activity: 1.4%
HUVEC [28]
  Activity: Active
HUVEC [29]
  Activity: Active
HUVEC [30]
  Activity: Active
HUVEC [7]
  viability at 1 µM: 90.3%
HUVEC [31]
  Activity: Active
HUVEC [9]
  viability at 0.1 µM: 84.7%
HUVEC [22]
  Activity: inactive
HUVEC [23]
  Activity: 1.1%
HUVEC [24]
  viability at 0.01 µM: 82.5%
HUVEC [25]
  Activity: 15%
HUVEC [17]
  Activity: 12.7%
HUVEC [19]
  Activity: 6.9%

## O=S(=O)(/C=C/c1ccc(-c2ccccc2)cc1)Cc1ccc(Cl)cc1
HUVEC [6]
  Activity: Toxic

## CC(C)(C)c1ccc(CS(=O)(=O)/C=C/c2ccc(C(=O)OC3CC(C)(C)N([O])C(C)(C)C3)cc2)cc1
HUVEC [20]
  Activity: Non-Toxic

## O=C(O)c1ccc(/C=C/S(=O)(=O)Cc2ccc(C(F)(F)F)cc2)cc1
HUVEC [6]
  Activity: Toxic

## CC1(C)CC(OC(=O)c2ccc(/C=C/S(=O)(=O)Cc3ccc(Cl)cc3)cc2)CC(C)(C)N1[O]
HUVEC [20]
  Activity: Non-Toxic
HUVEC [1]
  Activity: 2.9%
HUVEC [2]
  Activity: 2.5%
HUVEC [3]
  Activity: 1.3%
HUVEC [4]
  Activity: 2.1%
HUVEC [26]
  Activity: Active
HUVEC [27]
  Activity: Active
HUVEC [21]
  Activity: 2.2%
HUVEC [28]
  Activity: Active
HUVEC [29]
  Activity: Active
HUVEC [30]
  Activity: Active
HUVEC [7]
  viability at 1 µM: 83.3%
HUVEC [31]
  Activity: Active
HUVEC [9]
  viability at 0.1 µM: 90%
HUVEC [22]
  Activity: Active
HUVEC [23]
  Activity: 1.9%
HUVEC [24]
  viability at 0.01 µM: 84.7%
HUVEC [25]
  Activity: 11.2%
HUVEC [17]
  Activity: 6.2%
HUVEC [19]
  Activity: 11.7%

## CC(c1ccccc1)S(=O)(=O)/C=C/c1ccc(C(=O)OC2CC(C)(C)N([O])C(C)(C)C2)cc1 (configuration not stated)
HUVEC [20]
  Activity: Non-Toxic

## O=C(O)c1ccc(/C=C/S(=O)(=O)Cc2ccccc2)cc1
HUVEC [6]
  Activity: Toxic

## Cc1ccc(CS(=O)(=O)/C=C/c2ccc(C(=O)O)cc2)cc1
HUVEC [6]
  Activity: Toxic

## CC(c1ccccc1)S(=O)(=O)/C=C/c1ccc(C(=O)O)cc1 (configuration not stated)
HUVEC [32]
  Activity: Active
HUVEC [6]
  Activity: Toxic
HUVEC [11]
  Activity: Active

## COc1ccc(/C=C/S(=O)(=O)Cc2ccc(Cl)cc2)cc1
HUVEC [6]
  Activity: Toxic
